Laboratory results from patent US20020107269A1, “Benzoxazole LPAAT-B inhibitors and uses thereof” (CELL THERAPEUTICS, INC., priority 2000, published 2002).

These molecules were tested against T1, LPAAT-β (Homo sapiens, UniProt O15120) (assay: LPAAT-β colorimetric assay (DTNB detection of released CoA)). Details: Sf9 cell membrane overexpressing LPAAT-β; 18:1-CoA and sn-1-18:1 lysoPA; absorbance at 405 nm; read-out: LPAATβ Colorimetric Assay IC50.
T1 construct: the full-length human LPAAT-β cDNA was amplified by PCR; poly-histidine tag (N); made in house; host or cells: Sf9 insect cells (baculovirus, pFastBac HTc); membrane fraction used
T1 sequence (O15120 24-278): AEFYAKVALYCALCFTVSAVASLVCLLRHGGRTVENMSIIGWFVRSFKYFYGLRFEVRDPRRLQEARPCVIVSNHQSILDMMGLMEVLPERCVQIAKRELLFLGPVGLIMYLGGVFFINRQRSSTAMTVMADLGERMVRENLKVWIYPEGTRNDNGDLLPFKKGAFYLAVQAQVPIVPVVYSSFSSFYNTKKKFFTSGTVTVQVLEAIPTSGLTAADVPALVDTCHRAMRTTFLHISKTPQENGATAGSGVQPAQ
Format: biochemical
Excerpt: For the construction of Baculovirus expression vectors, the full-length human LPAAT-β cDNA was amplified by PCR from the DNA template pCE9.LPAAT-β (West et al., DNA Cell Biol. 16:691-701 (1997)) using the primers 5′-TGATATCCGAAGAAGATCTTATGGAGCTGTGGCCGTGTC-3′ (olpb1F) and 5′-CAGGCTCTAG ACTACTGGGC CGGCTGCAC-3′ (olpb1R). The ˜870 bp fragment generated was reamplified by PCR using the primers 5′ CCTACGTCG ACATGGAACAAAAATTGATATCCGAAGAAGATC-3′ (olpb2F) and 5′-CAGGCTCTAG ACTACTGGGC CGGCTGCAC-3′ (olpb1R). The ˜890 bp fragment generated was then cleaved with Sal I and Xba I for insertion into pFastBac™ HTc vector (Life Technologies, Gaithersberg, Md.) between the Sal I and Xba I sites for the generation of the plasmid pFB.LPAAT-β. This plasmid was then transformed into E. coli DH10Bac™ (Life Technologies, Gaithersberg, Md.) for the generation of recombinant Bacmid DNA for transfection into HighFive (Invitrogen, San Diego, Calif.) or SF9 insect cells for the production of recombinant Baculovirus stocks using the protocol described in the Bac-to-Bac® Baculovirus Expression System (Life Technologies, Gaithersberg, Md.), a eukaryotic expression system for generating recombinant baculovirus through site-specific transposition in E. coli. Viral stocks harvested from the transfected cells can then be used to infect fresh insect cells for the subsequent expression of LPAAT-β fusion protein with a poly-histidine tag and a myc-epitope near its N-terminus. The membrane fraction from these Sf9 cells would be the source of LPAAT enzyme.
For the preparation of membranes From Sf9 Cells, all steps are performed on ice or at 4° C. Sf9 cell pellets ([…]) were thawed and resuspended in 1-2 ml of buffer A (20 mM Hepes, pH 7.5, 1 mM DTT, 1 mM EDTA, 20% w/v glycerol, 1 mM Benzamidine, 1 μg/ml soybean trypsin inhibitor (SBTI), 1 μg/ml pepstatin A) w/o DTT but with 1 mM Pefabloc. The cells were lysed by sonication using a Branson Sonifier at output=2, duty cycle=2, 10 pulses each at 10 s. with the tip of small sonicator probe submerged but not touching the walls. DTT was then added to 1 mM from a 1M stock. The samples were centrifuged at 1500 rpm for 5 min. The low speed supernatant was saved and centrifuged (TLA 100.3 rotor, polycarbonate tubes, 2 ml/tube or 1.5 ml/tube minimum) at 100000×g for 1 hr. The high speed pellet was resuspend in Buffer A with a probe sonicator (10 pulses @ output #2 and duty cycle 20%) as a source of LPAAT enzyme.
LPAAT-β catalyzes the transfer of an acyl group from a donor such as acyl-CoA to LPA. The transfer of the acyl group from acyl-CoA to LPA leads to the release of free CoA, which can be reacted with the thiol reagent, 5,5′-dithiobis(2-nitrobenzoic acid) (DTNB). The reaction between DTNB and the free sulfhydryl group from CoA generates a yellow-colored product, 3-carboxylato-4-nitrothiophenolate (CNP), that absorbs at 413 nm. LPAAT-β derived from Sf9 cell membrane overexpressing LPAAT-β were resuspended in HEPES saline buffer (20 mM HEPES pH 7.5, 150 mM NaCl), 1 mg/ml BSA and 72 μl aliquots were distributed into 96-well microtiter plates. 8 μl of compound of interest at 200 μM dissolved in 100% DMSO was added into each well. 20 μl of 1 mM 18:1-CoA and 1 mM sn-1-18:1 lysoPA was then added to each well to initiate the reaction and allowed to run at room temperature for 25 min. 100 μl of 1 mM DTNB in 100% ethanol was then added to each well to quench the reaction and for color development. The absorbance at 405 nm, measured using a spectrophotometer plate reader, is proportional to the activity of LPAAT-β in the sample. This calorimetric assay was used for the high throughput screening of LPAAT inhibitors. […] Compounds that gave a reading of less than 0.06 arbitrary units (indicated by arrow on right margin) were selected for further study.

IC50 [nM] | Structure (SMILES)
900 | CCC(=O)Nc1ccc(Cl)c(-c2nc3ccccc3o2)c1 [CT-32008, N-(3-Benzooxazol-2-yl-4-chloro-phenyl)-propionamide]
500 | COC(=O)Nc1ccc(Cl)c(-c2nc3ccccc3o2)c1 [CT-32009, (3-Benzooxazol-2-yl-4-chloro-phenyl)-carbamic Acid Methyl Ester]
15500 | CCC(=O)Nc1ccc(F)c(-c2nc3cc(C)ccc3o2)c1 [CT-32011, N-(4-Fluoro-3-(5-methyl-benzooxazol-2-yl)-phenyl)-propionamide]
12000 | CCC(=O)N(C)c1ccc(Cl)c(-c2nc3cc(C)ccc3o2)c1 [CT-32019, N-(4-Chloro-3-(5-methyl-benzooxazol-2-yl)-phenyl)-N-methyl-propionamide]
4000 | CNC(=O)Nc1ccc(Cl)c(-c2nc3cc(C)ccc3o2)c1 [CT-32021, 1-(4-Chloro-3-(5-methyl-benzooxazol-2-yl)-phenyl)-3-methyl-urea]
1500 | COC(=O)Nc1ccc(C)c(-c2nc3cc(C)ccc3o2)c1 [CT-32036, (4-Methyl-3-(5-methyl-benzooxazol-2-yl)-phenyl)-carbamic Acid Methyl Ester]
190 | C#CCOC(=O)Nc1ccc(Cl)c(-c2nc3cc(C)ccc3o2)c1 [CT-32037, (4-Chloro-3-(5-methyl-benzooxazol-2-yl)-phenyl)-carbamic Acid Prop-2-ynyl Ester]
300 | COC(=O)Nc1ccc(Cl)c(-c2nc3cc(Cl)ccc3o2)c1 [CT-32053, (4-Chloro-3-(5-chloro-benzooxazol-2-yl)-phenyl)-carbamic Acid Methyl Ester]
10800 | COC(=O)Nc1ccc(Cl)c(-c2nc3cc(C)ccc3n2C)c1 [CT-32061, (4-Chloro-3-(1,5-dimethyl-1H-benzoimidazol-2-yl)-phenyl)-carbamic Acid Methyl Ester]
200 | COC(=O)Nc1ccc(Cl)c(-c2nc3cc(C(F)(F)F)ccc3s2)c1 [CT-32073, (4-Chloro-3-(5-trifluoromethyl-benzothiazol-2-yl)-phenyl)-carbamic Acid Methyl Ester]
160 | C#CCOC(=O)Nc1ccc(Cl)c(-c2nc3c(C)cccc3o2)c1 [CT-32079, (4-Chloro-3-(4-methyl-benzooxazol-2-yl)-phenyl)-carbamic acid Prop-2-ynyl Ester]
220 | CCC(=O)Nc1ccc(Cl)c(-c2nc3cc(C(F)(F)F)ccc3s2)c1 [CT-32142, N-(4-Chloro-3-(5-trifluoromethyl-benzothiazol-2-yl)-phenyl)-propionamide]
15 | C#CCOC(=O)Nc1ccc(Cl)c(-c2nc3cc(C(F)(F)F)ccc3s2)c1 [CT-32143, (4-Chloro-3-(5-trifluoromethyl-benzothiazol-2-yl)-phenyl)-carbamic Acid Prop-2-ynyl Ester]
50 | C#CCOC(=O)Nc1ccc(Cl)c(-c2nc3ccccc3o2)c1 [CT-32154, (3-Benzooxazol-2-yl-4-chloro-phenyl)-carbamic Acid Prop-2-ynyl Ester]
350 | CCC(=O)Nc1ccc(Cl)c(-c2nc3cc(Cl)ccc3o2)c1 [CT-32160, N-(4-Chloro-3-(5-chloro-benzooxazol-2-yl)-phenyl)-propionamide]
35 | C#CCOC(=O)Nc1ccc(Cl)c(-c2nc3cc(Cl)ccc3o2)c1 [CT-32161, (4-Chloro-3-(5-chloro-benzooxazol-2-yl)-phenyl)-carbamic Acid Prop-2-ynyl Ester]

IC50 [nM] | Structure (SMILES)
140 | C#CCOC(=O)Nc1ccc(Cl)c(-c2nc3cc(C(F)(F)F)ccc3o2)c1 [CT-32173, (4-Chloro-3-(5-trifluoromethyl-benzooxazol-2-yl)-phenyl)-carbamic Acid Prop-2-ynyl Ester]
40 | COC(=O)Nc1ccc(Cl)c(-c2nc3cc(Cl)ccc3s2)c1 [CT-32191, [4-Chloro-3-(5-chloro-benzothiazol-2-yl)-phenyl]-carbamic Acid Methyl Ester]
6 | C#CCOC(=O)Nc1ccc(Cl)c(-c2nc3cc(Cl)ccc3s2)c1 [CT-32192, (4-Chloro-3-(5-chloro-benzothiazol-2-yl)-phenyl)-carbamic Acid Prop-2-ynyl ester]
40 | C#CCOC(=O)Nc1ccc(C)c(-c2nc3cc(C(F)(F)F)ccc3s2)c1 [CT-32203, 4-Methyl-3-(5-trifluoromethyl-benzothiazol-2-yl)-phenyl-carbamic Acid Prop-2-ynyl Ester]
270 | N#CCC(=O)Nc1ccc(Cl)c(-c2nc3cc(Cl)ccc3o2)c1 [CT-32214, N-[4-Chloro-3-(5-chloro-benzooxazol-2-yl)-phenyl]-2-cyano-acetamide]
15 | N#CCC(=O)Nc1ccc(Cl)c(-c2nc3cc(Cl)ccc3s2)c1 [CT-32242, N-(4-Chloro-3-(5-chloro-benzothiazol-2-yl)-phenyl)-2-cyano-acetamide]
60 | C#CCOC(=O)Nc1ccc(Cl)c(-c2nc3cc(Cl)ccc3n2C)c1 [CT-32243, [4-Chloro-3-(5-chloro-1-methyl-1H-benzoimidazol-2-yl)-phenyl]-carbamic Acid Prop-2-ynyl Ester]
800 | C#CCOC(=O)Nc1ccc(Cl)c(-c2nc3ncccc3o2)c1 [CT-32259, (4-Chloro-3-oxazolo[4,5,b]pyridin-2-yl-phenyl)-carbamic Acid Prop-2-ynyl Ester]
25 | CC#CCOC(=O)Nc1ccc(Cl)c(-c2nc3cc(Cl)ccc3s2)c1 [CT-32262, (4-Chloro-3-(5-chloro-benzothiazol-2-yl)-phenyl)-carbamic Acid But-2-ynyl Ester]
150 | C#CCOC(=O)Nc1ccc(C)c(-c2nc3cc(Cl)ccc3s2)c1 [CT-32268, [3-(5-chloro-benzothiazol-2-yl)-4-methyl-phenyl]-carbamic Acid Prop-2-ynyl Ester]
190 | N#CCC(=O)Nc1ccc(Cl)c(-c2nc3cccnc3o2)c1 [CT-32271, N-(4-Chloro-3-oxazolo[5,4,b]pyridin-2-yl-phenyl)-2-cyano-acetamide]
55 | C#CCCOC(=O)Nc1ccc(Cl)c(-c2nc3cc(Cl)ccc3s2)c1 [CT-32277, [4-Chloro-3-(5-chloro-benzothiazol-2-yl)-phenyl]-carbamic Acid But-3-ynyl Ester]
40 | C#CCCC(=O)Nc1ccc(Cl)c(-c2nc3cc(Cl)ccc3s2)c1 [CT-32278, Pent-4-ynoic acid [4-chloro-3-(5-chloro-benzothiazol-2-yl)-phenyl]-amide]
175 | [N-]=[N+]=NCC(=O)Nc1ccc(Cl)c(-c2nc3cc(Cl)ccc3o2)c1 [CT-32289, 2-Azido-N-[4-chloro-3-(5-chloro-benzooxazol-2-yl)-phenyl]-acetamide]
1200 | C#CCOC(=O)Nc1ccc(C)c(-c2nc3cccnc3o2)c1 [CT-32290, (4-Methyl-3-oxazolo[5,4,b]pyridin-2-yl-phenyl)-carbamic Acid Prop-2-ynyl Ester]
